Several values for one entry are separate records, joined by “and”; a condition that tells them apart may be missing. Equal values may be shown once. Read-outs that look alike come from different tables or passages of the source.

Data set [1] is classed as binding.
For data set [2] the following is noted: POPC vesicles; cited from earlier work. The text has this:
Since the early observations by Lear and de Grado [2] showing that membrane fusion of lipid vesicles can be accomplished by a short N-terminal synthetic fragment of HA2 subunit, such fusion peptides (HAfp) have been extensively used as full-length hemagglutinin mimicking species in the studies on membrane fusion. […] This is ...

For data set [3] the following is noted: pH 5.
For data set [4] the following is noted: NMR, cited from earlier work. The text has this:
These values are considerably higher than expected in a hydrophobic environment (8.00 ± 0.03). […] T ...

Turning to `CC[C@H](C)[C@H](NC(=O)[C@H](C)NC(=O)CNC(=O)[C@H](Cc1ccccc1)NC(=O)[C@H](CC(C)C)NC(=O)CNC(C)=O)C(=O)N[C@@H](C)C(=O)NCC(=O)N[C@@H](Cc1ccccc1)C(=O)N[C@H](C(=O)N[C@@H](CCC(=O)O)C(=O)NCC(=O)NCC(=O)N[C@@H](Cc1c[nH]c2ccccc12)C(=O)N[C@@H](CCC(N)=O)C(=O)NCC(=O)N[C@@H](CCSC)C(=O)N[C@H](C(=O)N[C@@H](CC(=O)O)C(=O)NCC(N)=O)C(C)C)[C@@H](C)CC` [20Ac], the “Gibbs binding free energy ΔGx^0” value in data set [1] (pH 5.0) was -7.55 ± 0.048 kcal/mol; in data set [1] (pH 7.4) it was -6.86 ± 0.048 kcal/mol.

In the case of `CC[C@H](C)[C@H](NC(=O)[C@H](C)NC(=O)CNC(=O)[C@H](Cc1ccccc1)NC(=O)[C@H](CC(C)C)NC(=O)CN)C(=O)N[C@@H](C)C(=O)NCC(=O)N[C@@H](Cc1ccccc1)C(=O)N[C@H](C(=O)N[C@@H](CCC(=O)O)C(=O)NCC(=O)NCC(=O)N[C@@H](Cc1c[nH]c2ccccc12)C(=O)N[C@@H](CCC(N)=O)C(=O)NCC(=O)N[C@@H](CCSC)C(=O)N[C@H](C(=O)N[C@@H](CC(=O)O)C(=O)NCC(N)=O)C(C)C)[C@@H](C)CC` [20N+], the “Ability to induce membrane fusion, in words” value in data set [2] is given as “able to induce membrane fusion”. The “Gibbs binding free energy ΔGx^0” value in data set [1] (pH 5.0) was -7.84 ± 0.072 kcal/mol; in data set [1] (pH 7.4), -7.19 ± 0.096 kcal/mol. Besides, in data set [3], the “NBD-C6-PE fluorescence lifetime with peptide” value was 6.78 ± 0.20 ns. In addition, the “pK for G1 N-terminal amino group” value in data set [4] (in the presence of dioleoyl phosphocholine (PC) lipids) was 8.69.

Regarding `CC[C@H](C)[C@H](NC(=O)[C@H](C)NC(=O)CNC(=O)[C@H](Cc1ccccc1)NC(=O)[C@H](CC(C)C)NC(=O)CNC(C)=O)C(=O)N[C@@H](C)C(=O)NCC(=O)N[C@@H](Cc1ccccc1)C(=O)N[C@H](C(=O)N[C@@H](CCC(=O)O)C(=O)NCC(=O)NCC(=O)N[C@@H](Cc1c[nH]c2ccccc12)C(=O)N[C@@H](CCC(N)=O)C(=O)NCC(=O)N[C@@H](CCSC)C(=O)N[C@H](C(=O)N[C@@H](CC(=O)O)C(=O)NCC(=O)N[C@@H](Cc1c[nH]c2ccccc12)C(=O)N[C@@H](Cc1ccc(O)cc1)C(=O)NCC(N)=O)C(C)C)[C@@H](C)CC` [23Ac], in data set [1] (pH 5.0), the “Difference of ∆G^0 between N-acetylated and unmodified peptide of the same length” value was ~ 2.3 kJ/mol; the “Gibbs binding free energy ΔGx^0” value was -8.41 ± 0.072 kcal/mol. For the same compound, the “Gibbs binding free energy ΔGx^0” value in data set [1] (pH 7.4) is -8.94 ± 0.048 kcal/mol. Also, the “NBD-C6-PE fluorescence lifetime with peptide” value in data set [3] came out at 6.66 ± 0.25 ns.

Consider `CC[C@H](C)[C@H](NC(=O)[C@H](C)NC(=O)CNC(=O)[C@H](Cc1ccccc1)NC(=O)[C@H](CC(C)C)NC(=O)CN)C(=O)N[C@@H](C)C(=O)NCC(=O)N[C@@H](Cc1ccccc1)C(=O)N[C@H](C(=O)N[C@@H](CCC(=O)O)C(=O)NCC(=O)NCC(=O)N[C@@H](Cc1c[nH]c2ccccc12)C(=O)N[C@@H](CCC(N)=O)C(=O)NCC(=O)N[C@@H](CCSC)C(=O)N[C@H](C(=O)N[C@@H](CC(=O)O)C(=O)NCC(=O)N[C@@H](Cc1c[nH]c2ccccc12)C(=O)N[C@@H](Cc1ccc(O)cc1)C(=O)NCC(N)=O)C(C)C)[C@@H](C)CC` [23N+], for which, in data set [1] (22.0 °C), the “Partition coefficient Kx·10^−3” value is 660 ± 80 and 480 ± 130. Also, the “Gibbs binding free energy ΔGx^0” value in data set [1] (pH 5.0) was -7.86 ± 0.072 kcal/mol; in data set [1] (pH 7.4) it was -7.67 ± 0.17 kcal/mol. The “NBD-C6-PE fluorescence lifetime with peptide” value in data set [3] turned out to be 6.55 ± 0.23 ns. Besides, the “pK for G1 N-terminal amino group” value in data set [4] (in the presence of dodecylphosphatidyl (DPC) detergents) is given as 8.8.

The record behind these values is article PMC5855800, “Charged N-terminus of Influenza Fusion Peptide Facilitates Membrane Fusion” (International Journal of Molecular Sciences, 2018).
